Experiments:
ethylene receptors = assay: Banana ripening protection from ethylene; type: in vivo; details: 24 hours of exposure in 3-liter jar, then 333 microliters per liter of ethylene for 12-15 hours; banana peels
Procedure: Compounds which block the ethylene receptors can prevent bananas from ripening. Treatment of bananas with 30 nl/l of Compound 1 protected banana peels from the effects of ethylene. The bananas were treated using the following general procedure:
An ether solution of a known amount of the active compound was placed on filter paper in a 3-liter jar. The amount of ether used was without effect when applied alone on a banana contained in a 3-liter jar. The jar was sealed and the banana was removed after 24 hours of exposure. The banana was then treated with 333 microliters per liter of ethylene in a 3-liter jar for 12-15 hours. It was then observed for ripening. The minimum concentration that protected the banana was determined.

[1] = tested on: Patio variety tomato seedlings; assay: Tomato Epinasty Test, volatile gas treatment; type: in vivo; details: applied as a gas at 1000 ppm; ethylene 10 ppm v/v after four hours, scored sixteen hours later
Procedure: Objective: The test procedure is designed to determine the ability of an experimental compound to block the epinastic growth response induced by ethylene in tomato plants when the experimental compound is administered either as a volatile gas or as a component of a spray solution. Treatment chambers are of an appropriate size for the test plants and are airtight. Each is fitted with a reusable septum to be used for injection of ethylene. Test plants are Patio variety tomato seedlings planted two plants per three inch square plastic pot. Volatile gas treatment entails placing two pots of Patio var. tomatoes into a polystyrene 4.8L volume treatment chamber along with one-half (upper or lower section) of a 50×9 mm plastic Petri dish containing a Gelman filter pad. The appropriate amount of experimental compound, dissolved in 1.0 ml acetone, is pipetted onto the filter pad and the chamber immediately sealed. Four hours later ethylene gas equal to 10 ppm v/v final concentration is injected into the sealed chamber. Sixteen hours later the chambers are opened in an exhaust hood, allowed to air and the plants scored visually for the degree of protection against ethylene-induced epinasty conferred by the experimental compound when compared to ethylene treated and untreated controls on a scale of 0 to 10. A rating of 10 means complete protection. […]

Row | minimum concentration that protected the banana (ethylene receptors) | SMILES | rating of protection against ethylene-induced epinasty (scale of 0 to 10; 10 means complete protection) [1]
1 | 30 nl/l | OCC1=CC1 [Compound 1, 1-Hydroxymethylcyclopropene] | 
2 |  | OCCC1=CC1 [Compound 2, 1-(2-Hydroxyethyl)-cyclopropene] | 10

Reference: patent publication US20040072694A1, “Method to inhibit ethylene responses in plants” (priority 2002, published 2004)
